Data published in US20240109925A1, “Enhanced Anti-Proliferative and Antitumor Immune Effects of Mitochondria-Targeted Hydroxyurea” (The Medical College of Wisconsin, Inc., priority 2021, published 2024).
Like-named read-outs stand apart in the source and are kept apart here.

Experiments:
Assay type in all cases: cell-based, mouse
M-MDSC = experiment: In vitro differentiation of MDSCs from bone marrow cells, flow cytometry; conditions: for IC50: Mus musculus, Bone marrow cell
Text: (§1) FIG. 5. In vitro differentiation of MDSCs and suppressive neutrophils in the presence of different concentrations of Mito14-HU and Mito-HUs with varying hydrophobicities (A) Scheme of differentiation of MDSCs. (B) Representative flow cytometry contour plots of in vitro differentiation of MDSCs under varying concentrations of Mito14-HU using FlowJo Software (FlowJo Software, 2019). (C) Summary data depicting distribution of MDSCs after three days treatment with Mito14-HU generated from panel (B). (D and E) (D) Dose-dependent effects of Mito-HUs with different side chain lengths on M-MDSC and (E) suppressive neutrophils. Dashed lines represent the fitting curves used for determination of the IC50 values. Data shown are the means & SD.
(§2) MDSCs were generated from bone marrow cells isolated from C57b1/6 mice and cultured at a density of 1 3 10^6 cells/ml in RPMI with 10% fetal bovine serum and 25 ng/ml recombinant mouse GM-CSF (Shenandoah Biotechnology, Inc.) and 25 ng/ml recombinant mouse IL-6 (Shenandoah Biotechnology, Inc.) for three days. Then, cells were re-cultured in fresh media with inhibitors for an additional three days. Cells were scraped and examined by flow cytometry using the following markers: FITC-anti Ly6C (Biolegend, San Diego, CA), PE-Cy7 anti F4/80 (Biolegend), APC-Cy7 anti Ly6G (Biolegend), and Pacific Blue anti-CD11b (Biolegend). A gating strategy similar to that employed for the T cells was used in all MDSC differentiation assays, which were tested only on live cells after treatments. Flow cytometry data were acquired using a BD Celesta flow cytometer (BD Biosciences), and data were analyzed using FlowJo software (Treestar, Inc.).

suppressive neutrophils = experiment: as above; conditions: for IC50: Mus musculus, Neutrophil, 72 h, read-out: IC50 Suppressive Neutrophils (FIG. 6); for effect on suppressive neutrophils: three days
Text: as §1, §2

CD4 T cells = experiment: In vitro differentiation of CD4 T cells (Treg / IFNg-YFP Teff), flow cytometry; conditions: for Concentration with Maximum Effect on IFN -YFP: tested concentration with maximum effect, six days culture
Text: FIG. 4. Effects of Mito10-HU on in vitro differentiation of CD4 T cells (A) The gating strategy reflects data from one DMSO control sample. First, the total population of cells was gated (FSC-A vs SSC-A). Then, single cells were gated (SSC-W vs SSC-H). Within the single cell population, we gated on the live CD4 T cells using a fixable LIVE/DEAD stain (CD4 vs DEAD). Within the live CD4 T cells we gated on CD25+FOXP3+Tregs (FOXP3 vs CD25), as well as IFNg-YFP+CD4 T cells (IFNg-YFP vs CD4). (B) Live CD4 T cells were gated within the single cell populations, at varying concentrations of Mito10-HU, along with DMSO controls (B, top row). CD25+FOXP3+Tregs (B, middle row) and IFNg-YFP+CD4 T cells (B, bottom row) were gated within the live CD4 T cell populations, at varying concentrations of Mito10-HU, along with DMSO controls. (C) Effects of Mito10-HU on live CD4+T cells within the lymphocyte gate (C, left), the frequency of FOXP3+CD25+cells within the live CD4+T cells (C, middle), and Teff function is shown as the frequency of IFNg-YFP positive cells within the live CD4+T cells (C, right). Data shown are the means & SD, n=2 per treatment group. *p<0.05, **p<0.01 vs control.
To differentiate CD4^+ T cells into a Treg phenotype, splenocytes from SMARTA triple-reporter mice were processed and the red blood cells were lysed using an ACK (ammonium-chloride-potassium) lysis buffer. The cells were then activated with […] GP61-80 peptide (GenScript, Piscataway, NJ) and 5 ng/mL TGF-b1 (Shenandoah Biotechnology, Inc., Warwick, PA). After one day of initial skewing, […] IL-2 along with HU or Mito-HUs (n=4-20) of varying concentrations were added to the culture. Cells were cultured for six days and split once cells reached confluency; cells were replenished with IL-2 and compound (i.e., MitoHUs) accordingly. After six days in culture, cells were stained to assess the viability and phenotypic analysis via flow cytometry. LIVE/DEAD fixable violet or aqua dead cell stain (Invitrogen) was used to assess cell viability. Only live cells were gated out for further functional analysis by using a fixable LIVE/DEAD stain. First, total population of cells was gated (FSC-A vs SSC-A). Then, single cells were gated (SSC-W vs SSC-H). Within the single cell population, we gated on the live CD4 T cells using a fixable Live/Dead stain (CD4 vs DEAD). Within the live CD4 T cells, we gated on CD25^+FOXP3^+ Tregs (FOXP3 vs CD25), as well as IFNg-YFP^+ CD4 T cells (IFNg-YFP vs CD4).
The following antibodies were used for flow cytometry staining: APC-Cy7 anti-mouse CD4 (clone: GK1.5; BioLegend, San Diego, CA), APC anti-mouse CD25 (clone: PC61; BioLegend), and PE anti-mouse FOXP3 (clone: FJK-165; eBioscience, San Diego, CA). Flow cytometry data were acquired using a BD Celesta flow cytometer (BD Biosciences, San Jose, CA) flow cytometer and analyzed using FlowJo (Treestar, Inc., Ashland, OR) (FlowJo Software, 2019).

[1] = 72 h, read-out: IC50 M-MDSC (FIG. 6)
[2] = read-out: IC50 frequency of M-MDSCs

Row | SMILES | IC50 (M-MDSC; [1]) [nM] | IC50 (M-MDSC; [2]) [nM] | IC50 (suppressive neutrophils) [nM] | Concentration with Maximum Effect on IFN -YFP (CD4 T cells) [µM] | effect on suppressive neutrophils (suppressive neutrophils) | IC50 (M-MDSC; 72 h, mean ± SD, three days treatment, read-out: IC50 M-MDSC (FIG. 6)) [nM] | IC50 (suppressive neutrophils; mean ± SD, three days treatment) [nM] | lowest concentration with maximal effect on Teff activation (CD4 T cells; IFNg-YFP) [mM] | FOXP3+ Treg differentiation (CD4 T cells; six days) | Teff IFNg production (CD4 T cells; six days) | effect on M-MDSC (M-MDSC; three days)
1 | NC(=O)NOCCCCCCCCCCCC[P+](c1ccccc1)(c1ccccc1)c1ccccc1.O=C([O-])C(F)(F)F [Mito12-HU, 12-[(carbamoylamino)oxy]-dodecyltriphenylphosphonium trifluoroacetate] | 2600 ± 110 | 2600 | > 4000 | 10 | – | – | – | – | – | – | –
2 | NC(=O)NOCCCCCCCCCCCCCCCC[P+](c1ccccc1)(c1ccccc1)c1ccccc1.O=C([O-])C(F)(F)F [Mito16-HU, 16-[(carbamoylamino)oxy]-hexadecyltriphenylphosphonium trifluoroacetate] | 440 ± 110 | 440 | 560 ± 120 | 0.4 | greater inhibitory effects | – | – | – | – | – | –
3 | NC(=O)NO [HU, Hydroxyurea] | – | – | – | 200 | – | 84000 ± 2800 | 18000 ± 1900 | – | – | – | –
4 | NC(=O)NOCCCCCCCCCCCCCCCCCCCC[P+](c1ccccc1)(c1ccccc1)c1ccccc1.O=C([O-])C(F)(F)F [Mito20-HU, 20-[(carbamoylamino)oxy]-eicosanyltriphenylphosphonium trifluoroacetate] | 440 ± 90 | 440 | > 1000 | 0.3 | – | – | – | 0.3 | – | – | –
5 | NC(=O)NOCCCCCCCCCC[P+](c1ccccc1)(c1ccccc1)c1ccccc1.O=C([O-])C(F)(F)F [Mito10-HU, 10-[(carbamoylamino)oxy]-decyltriphenylphosphonium trifluoroacetate] | 9600 ± 390 | 9600 | > 20000 | 12.5 | – | – | – | – | inhibited FOXP3^+ Treg differentiation and/or survival | promoted Teff IFNg production | –
6 | NC(=O)NOCCCCCCCCCCCCCC[P+](c1ccccc1)(c1ccccc1)c1ccccc1.O=C([O-])C(F)(F)F [Mito14-HU, 14-[(carbamoylamino)oxy]-tetradecyltriphenylphosphonium trifluoroacetate] | 890 ± 100 | 890 | 940 ± 990 | 1.5 | dose-dependently inhibited | – | – | – | – | – | dose-dependently inhibited
